Measured values taken from patent US9302999B2, “Substituted triazoles as herbicides” (E. I. DU PONT DE NEMOURS AND COMPANY, priority 2012, dated 2016).
Where two headings read alike, the source gives them in different places.

How the values were obtained:
Type in all cases: in vivo
[1] = tested on: pigweed (Amaranthus retroflexus); assay: Test A pre-/postemergence: pigweed; conditions: for pest or weed control at 125 g/ha / pest or weed control at 500 g/ha: Amaranthus retroflexus, 240 h
In short: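 Compounds, formulated with surfactant in non-phytotoxic solvent, were applied as a directed soil spray preemergence and as postemergence sprays to 2–10 cm, one- to two-leaf seedlings grown in loam soil blended with sand; visual injury, 0–100, assessed ~10 days post-treatment against untreated controls.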

[2] = tested on: rice (Oryza sativa); assay: Test B flooded paddy: rice; conditions: Flood; 250 g ai/ha; applied to paddy water at 2-leaf stage; visually evaluated after 13 to 15 days
In short: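 Plants were grown to the 2-leaf stage and pots flooded to 3 cm above soil. Compounds were applied directly into the paddy water, with depth kept for the test. After 13–15 days in greenhouse, response was rated visually against controls on a 0 (no effect) to 100 (complete control) scale.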

[3] = tested on: blackgrass (Alopecurus myosuroides); assay: Test C pre-/postemergence: blackgrass
In short: (§1)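 Preemergence on seeds in loam/sand, postemergence on 2–18 cm (1–4-leaf) plants in peat-based medium; compounds in non-phytotoxic solvent with surfactant. After 13–15 days in greenhouse, visual rating versus controls, 0 (no effect) to 100 (complete control).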

[4] = tested on: winter wheat (Triticum aestivum); assay: Test C pre-/postemergence: winter wheat
In short: as §1

[5] = tested on: wild oat (Avena fatua); assay: Test C pre-/postemergence: wild oat
In short: as §1

[6] = tested on: galium (catchweed bedstraw, Galium aparine); assay: Test C pre-/postemergence: galium
In short: as §1

[7] = tested on: nutsedge, yellow (yellow nutsedge, Cyperus esculentus); assay: Test C pre-/postemergence: nutsedge, yellow
In short: as §1

[8] = tested on: pigweed (Amaranthus retroflexus); assay: Test C pre-/postemergence: pigweed
In short: as §1

[9] = tested on: ragweed (common ragweed, Ambrosia elation); assay: Test C pre-/postemergence: ragweed
In short: as §1

[10] = tested on: morningglory (Ipomoea coccinea); assay: Test C pre-/postemergence: morningglory
In short: as §1

[11] = Postemergence, 125 g ai/ha, 0 to 100 scale, 0 is no effect, 100 is complete control
[12] = Postemergence, 500 g ai/ha, visual rating on 0 to 100 scale (0 no effect, 100 complete control), approximately ten days
[13] = Preemergence, 125 g ai/ha, 0 to 100 scale (0 no effect, 100 complete control)
[14] = Preemergence, 500 g ai/ha, 0 to 100 scale, 0 is no effect, 100 is complete control
[15] = Postemergence, 31 g ai/ha, scale 0 to 100 (0 no effect, 100 complete control)
[16] = Postemergence, 62 g ai/ha, scale 0 to 100 (0 no effect, 100 complete control)
[17] = Postemergence, 125 g ai/ha, scale 0 to 100, 0 no effect, 100 complete control
[18] = Postemergence, 250 g ai/ha, scale 0 to 100
[19] = Preemergence, 31 g ai/ha, scale of 0 to 100, 0 is no effect, 100 is complete control
[20] = Preemergence, 62 g ai/ha, scale 0 to 100, 0 no effect, 100 complete control
[21] = Preemergence, 125 g ai/ha, scale 0 to 100, 0 no effect, 100 complete control
[22] = Preemergence, 250 g ai/ha, scale 0 to 100, 0 no effect, 100 complete control
[23] = Preemergence, 62 g ai/ha, scale of 0 to 100, 0 is no effect, 100 is complete control

## FC(F)(F)c1ccc(-n2nc(Cl)c(Cc3ccnc(C(F)(F)F)c3)n2)cc1 [Compound 28]
[1]; [11]
  Pigweed plant response rating: 100
[1]; [12]
  Pigweed plant response rating: 100
[1]; [13]
  Plant response rating, Pigweed: 100
[1]; [14]
  Plant response rating, Pigweed: 100
[2]
  Plant response rating, Rice (0 to 100 scale, 0 is no effect, 100 is complete control): 80
[3]; [15]
  Plant response rating, Blackgrass: 10
[3]; [16]
  Plant response rating, Blackgrass: 10
[3]; [17]
  Plant response rating, Blackgrass: 55
[3]; [18]
  Plant response rating, Blackgrass: 60
[4]; [15]
  Plant response rating, Wheat: 5
[4]; [16]
  Plant response rating, Wheat: 10
[4]; [17]
  Plant response rating, Wheat: 10
[4]; [18]
  Plant response rating, Wheat: 20
[5]; [15]
  Plant response rating, Oat, Wild: 10
[5]; [16]
  Plant response rating, Oat, Wild: 15
[5]; [17]
  Plant response rating, Oat, Wild: 40
[5]; [18]
  Plant response rating, Oat, Wild: 70
[6]; [15]
  Plant response rating, Galium: 40
[6]; [16]
  Plant response rating, Galium: 55
[6]; [17]
  Plant response rating, Galium: 70
[6]; [18]
  Plant response rating, Galium: 80
[7]; [15]
  Plant response rating, Nutsedge, Yellow: 5
[7]; [16]
  Plant response rating, Nutsedge, Yellow: 5
[7]; [17]
  Plant response rating, Nutsedge, Yellow: 15
[7]; [18]
  Plant response rating, Nutsedge, Yellow: 25
[8]; [15]
  Plant response rating, Pigweed: 55
[8]; [16]
  Plant response rating, Pigweed: 55
[8]; [17]
  Plant response rating, Pigweed: 55
[8]; [18]
  Plant response rating, Pigweed: 98
[9]; [15]
  Plant response rating, Ragweed: 35
[9]; [16]
  Plant response rating, Ragweed: 60
[9]; [18]
  Plant response rating, Ragweed: 85

## FC(F)Oc1nn(-c2ccc(C(F)(F)F)cc2)nc1Cc1ccnc(C(F)(F)F)c1 [Compound 26]
[1]; [11]
  Pigweed plant response rating: 100
[1]; [12]
  Pigweed plant response rating: 100
[1]; [13]
  Plant response rating, Pigweed: 100
[1]; [14]
  Plant response rating, Pigweed: 100
[2]
  Plant response rating, Rice (0 to 100 scale, 0 is no effect, 100 is complete control): 80
[3]; [15]
  Plant response rating, Blackgrass: 30
[3]; [16]
  Plant response rating, Blackgrass: 35
[3]; [17]
  Plant response rating, Blackgrass: 70
[3]; [18]
  Plant response rating, Blackgrass: 90
[3]; [19]
  Plant response rating, Blackgrass: 55
[3]; [20]
  Plant response rating, Blackgrass: 90
[3]; [21]
  Plant response rating, Blackgrass: 90
[3]; [22]
  Plant response rating, Blackgrass: 90
[4]; [15]
  Plant response rating, Wheat: 10
[4]; [16]
  Plant response rating, Wheat: 20
[4]; [17]
  Plant response rating, Wheat: 30
[4]; [18]
  Plant response rating, Wheat: 35
[4]; [19]
  Plant response rating, Wheat: 0
[4]; [23]
  Plant response rating, Wheat: 5
[4]; [21]
  Plant response rating, Wheat: 30
[4]; [22]
  Plant response rating, Wheat: 30
[5]; [15]
  Plant response rating, Oat, Wild: 10
[5]; [16]
  Plant response rating, Oat, Wild: 30
[5]; [17]
  Plant response rating, Oat, Wild: 40
[5]; [18]
  Plant response rating, Oat, Wild: 85
[5]; [19]
  Plant response rating, Oat, Wild: 45
[5]; [23]
  Plant response rating, Oat, Wild: 70
[5]; [21]
  Plant response rating, Oat, Wild: 70
[5]; [22]
  Plant response rating, Oat, Wild: 95
[6]; [15]
  Plant response rating, Galium: 50
[6]; [16]
  Plant response rating, Galium: 55
[6]; [17]
  Plant response rating, Galium: 75
[6]; [18]
  Plant response rating, Galium: 75
[6]; [19]
  Plant response rating, Galium: 50
[6]; [23]
  Plant response rating, Galium: 75
[6]; [21]
  Plant response rating, Galium: 100
[6]; [22]
  Plant response rating, Galium: 100
[7]; [15]
  Plant response rating, Nutsedge, Yellow: 10
[7]; [16]
  Plant response rating, Nutsedge, Yellow: 10
[7]; [17]
  Plant response rating, Nutsedge, Yellow: 15
[7]; [18]
  Plant response rating, Nutsedge, Yellow: 15
[7]; [19]
  Plant response rating, Nutsedge, Yellow: 0
[7]; [23]
  Plant response rating, Nutsedge, Yellow: 0
[7]; [21]
  Plant response rating, Nutsedge, Yellow: 0
[7]; [22]
  Plant response rating, Nutsedge, Yellow: 0
[8]; [16]
  Plant response rating, Pigweed: 60
[8]; [17]
  Plant response rating, Pigweed: 80
[8]; [18]
  Plant response rating, Pigweed: 98
[8]; [19]
  Plant response rating, Pigweed: 100
[8]; [23]
  Plant response rating, Pigweed: 100
[8]; [21]
  Plant response rating, Pigweed: 100
[8]; [22]
  Plant response rating, Pigweed: 100
[9]; [15]
  Plant response rating, Ragweed: 40
[9]; [16]
  Plant response rating, Ragweed: 55
[9]; [17]
  Plant response rating, Ragweed: 90
[9]; [18]
  Plant response rating, Ragweed: 95
[9]; [19]
  Plant response rating, Ragweed: 15
[9]; [23]
  Plant response rating, Ragweed: 35
[9]; [21]
  Plant response rating, Ragweed: 50
[9]; [22]
  Plant response rating, Ragweed: 75

## Cc1nn(-c2ccc(F)cc2F)nc1Cc1ccnc(C(F)(F)F)c1 [Compound 54, 4-[[2-(2,4-difluorophenyl)-5-methyl-2H-1,2,3-triazol-4-yl]methyl]-2-(trifluoromethyl)pyridine]
[1]; post-emergence, Postemergence, 125 g ai/ha, 0 to 100 scale, 0 is no effect, 100 is complete control, read-out: Pigweed plant response rating
  pest or weed control at 125 g/ha: 100%
[1]; post-emergence, Postemergence, 500 g ai/ha, visual rating on 0 to 100 scale (0 no effect, 100 complete control), approximately ten days, read-out: Pigweed plant response rating
  pest or weed control at 500 g/ha: 100%
[1]; pre-emergence, Preemergence, 125 g ai/ha, 0 to 100 scale (0 no effect, 100 complete control), read-out: Plant response rating, Pigweed
  pest or weed control at 125 g/ha: 100%
[1]; pre-emergence, Preemergence, 500 g ai/ha, 0 to 100 scale, 0 is no effect, 100 is complete control, read-out: Plant response rating, Pigweed
  pest or weed control at 500 g/ha: 100%
[2]
  Plant response rating, Rice (0 to 100 scale, 0 is no effect, 100 is complete control): 30

## Cc1nn(-c2ccc(C(F)(F)F)cn2)nc1Cc1cccc(C(F)(F)F)c1 [Compound 106]
[1]; Postemergence, 1000 g ai/ha, visual rating on 0 to 100 scale (0 no effect, 100 complete control), approximately ten days
  Pigweed plant response rating: 100
[1]; Preemergence, 1000 g ai/ha, 0 to 100 scale, 0 is no effect, 100 is complete control
  Pigweed plant response rating: 90
[3]; [15]
  Plant response rating, Blackgrass: 30
[3]; [16]
  Plant response rating, Blackgrass: 40
[3]; [17]
  Plant response rating, Blackgrass: 45
[3]; [18]
  Plant response rating, Blackgrass: 60
[3]; [19]
  Plant response rating, Blackgrass: 50
[3]; [20]
  Plant response rating, Blackgrass: 50
[3]; [21]
  Plant response rating, Blackgrass: 90
[3]; [22]
  Plant response rating, Blackgrass: 95
[4]; [15]
  Plant response rating, Wheat: 10
[4]; [16]
  Plant response rating, Wheat: 30
[4]; [17]
  Plant response rating, Wheat: 30
[4]; [19]
  Plant response rating, Wheat: 0
[4]; [23]
  Plant response rating, Wheat: 0
[4]; [21]
  Plant response rating, Wheat: 0
[4]; [22]
  Plant response rating, Wheat: 5
[5]; [15]
  Plant response rating, Oat, Wild: 10
[5]; [16]
  Plant response rating, Oat, Wild: 30
[5]; [17]
  Plant response rating, Oat, Wild: 45
[5]; [18]
  Plant response rating, Oat, Wild: 45
[5]; [19]
  Plant response rating, Oat, Wild: 10
[5]; [23]
  Plant response rating, Oat, Wild: 45
[5]; [21]
  Plant response rating, Oat, Wild: 70
[5]; [22]
  Plant response rating, Oat, Wild: 80
[6]; [15]
  Plant response rating, Galium: 65
[6]; [16]
  Plant response rating, Galium: 65
[6]; [17]
  Plant response rating, Galium: 80
[6]; [18]
  Plant response rating, Galium: 80
[6]; [19]
  Plant response rating, Galium: 5
[6]; [23]
  Plant response rating, Galium: 10
[6]; [21]
  Plant response rating, Galium: 60
[6]; [22]
  Plant response rating, Galium: 90
[10]; [15]
  Plant response rating, Morningglory: 0
[10]; [16]
  Plant response rating, Morningglory: 20
[10]; [17]
  Plant response rating, Morningglory: 40
[10]; [18]
  Plant response rating, Morningglory: 40
[10]; [19]
  Plant response rating, Morningglory: 0
[10]; [23]
  Plant response rating, Morningglory: 0
[10]; [21]
  Plant response rating, Morningglory: 10
[10]; [22]
  Plant response rating, Morningglory: 60
[7]; [15]
  Plant response rating, Nutsedge, Yellow: 0
[7]; [16]
  Plant response rating, Nutsedge, Yellow: 0
[7]; [17]
  Plant response rating, Nutsedge, Yellow: 0
[7]; [18]
  Plant response rating, Nutsedge, Yellow: 0
[7]; [19]
  Plant response rating, Nutsedge, Yellow: 0
[7]; [23]
  Plant response rating, Nutsedge, Yellow: 0
[7]; [21]
  Plant response rating, Nutsedge, Yellow: 0
[7]; [22]
  Plant response rating, Nutsedge, Yellow: 0
[8]; [15]
  Plant response rating, Pigweed: 95
[8]; [16]
  Plant response rating, Pigweed: 98
[8]; [17]
  Plant response rating, Pigweed: 98
[8]; [18]
  Plant response rating, Pigweed: 98
[8]; [19]
  Plant response rating, Pigweed: 85
[8]; [23]
  Plant response rating, Pigweed: 98
[8]; [21]
  Plant response rating, Pigweed: 100
[8]; [22]
  Plant response rating, Pigweed: 100
[9]; [15]
  Plant response rating, Ragweed: 10
[9]; [16]
  Plant response rating, Ragweed: 55
[9]; [17]
  Plant response rating, Ragweed: 60
[9]; [18]
  Plant response rating, Ragweed: 60
[9]; [19]
  Plant response rating, Ragweed: 0
[9]; [23]
  Plant response rating, Ragweed: 0
[9]; [21]
  Plant response rating, Ragweed: 0
[9]; [22]
  Plant response rating, Ragweed: 55
